Data reported in ChEMBL document CHEMBL3994585, “Synthesis of α-santonin derivatives for diminutive effect on T and B-cell proliferation and their structure activity relationships” (Eur J Med Chem, 2017).

Legend:
B-cell [1] = experiment: Immunosuppressive activity in Balb/c mouse B cells assessed as LPS-induced cell proliferation at 100 uM after 48 hrs by MTT assay relative to control; assay type: functional
B-cell [2] = experiment: Immunosuppressive activity in Balb/c mouse B cells assessed as LPS-induced cell proliferation at 10 uM after 48 hrs by MTT assay relative to control; assay type: functional
T-cell [3] = experiment: Immunosuppressive activity in Balb/c mouse T cells assessed as ConA-induced cell proliferation at 100 uM after 48 hrs by MTT assay relative to control; assay type: functional
T-cell [4] = experiment: Immunosuppressive activity in Balb/c mouse T cells assessed as ConA-induced cell proliferation at 10 uM after 48 hrs by MTT assay relative to control; assay type: functional
T-cell [5] = experiment: Immunosuppressive activity in Balb/c mouse T cells assessed as ConA-induced cell proliferation at 1 uM after 48 hrs by MTT assay relative to control; assay type: functional
B-cell [6] = experiment: Immunosuppressive activity in Balb/c mouse B cells assessed as LPS-induced cell proliferation at 1 uM after 48 hrs by MTT assay relative to control; assay type: functional
B-cell [7] = experiment: Immunostimulant activity in Balb/c mouse B cells assessed as LPS-induced cell proliferation at 10 uM after 48 hrs by MTT assay relative to control; assay type: ADME, cell-based
T-cell [8] = experiment: Cytotoxicity against Balb/c mouse T cells assessed as reduction in cell proliferation at 100 uM after 48 hrs by MTT assay; assay type: cell-based
B-cell [9] = experiment: Immunostimulant activity in Balb/c mouse B cells assessed as LPS-induced cell proliferation at 1 uM after 48 hrs by MTT assay relative to control; assay type: ADME, cell-based
T-cell [10] = experiment: Immunostimulant activity in Balb/c mouse T cells assessed as ConA-induced cell proliferation at 10 uM after 48 hrs by MTT assay relative to control; assay type: ADME, cell-based
B-cell [11] = experiment: Cytotoxicity against Balb/c mouse B cells assessed as reduction in cell proliferation at 100 uM after 48 hrs by MTT assay; assay type: cell-based
T-cell [12] = experiment: Cytotoxicity against Balb/c mouse T cells assessed as reduction in cell proliferation at 1 uM after 48 hrs by MTT assay; assay type: cell-based
T-cell [13] = experiment: Immunostimulant activity in Balb/c mouse T cells assessed as ConA-induced cell proliferation at 100 uM after 48 hrs by MTT assay relative to control; assay type: ADME, cell-based
T-cell [14] = experiment: Immunostimulant activity in Balb/c mouse T cells assessed as ConA-induced cell proliferation at 1 uM after 48 hrs by MTT assay relative to control; assay type: ADME, cell-based
B-cell [15] = experiment: Cytotoxicity against Balb/c mouse B cells assessed as reduction in cell proliferation at 10 uM after 48 hrs by MTT assay; assay type: cell-based
T-cell [16] = experiment: Cytotoxicity against Balb/c mouse T cells assessed as reduction in cell proliferation at 10 uM after 48 hrs by MTT assay; assay type: cell-based
B-cell [17] = experiment: Cytotoxicity against Balb/c mouse B cells assessed as reduction in cell proliferation at 1 uM after 48 hrs by MTT assay; assay type: cell-based
B-cell [18] = experiment: Immunostimulant activity in Balb/c mouse B cells assessed as LPS-induced cell proliferation at 100 uM after 48 hrs by MTT assay relative to control; assay type: ADME, cell-based

Compound | Activity (B-cell [1]) [%] | Activity (B-cell [2]) [%] | Activity (T-cell [3]) [%] | Activity (T-cell [4]) [%] | Activity (T-cell [5]) [%] | Activity (B-cell [6]) [%] | Activity (B-cell [7]) [%] | Activity (T-cell [8]) | Activity (B-cell [9]) [%] | Activity (T-cell [10]) [%] | Activity (B-cell [11]) | Activity (T-cell [12]) | Activity (T-cell [13]) [%] | Activity (T-cell [14]) [%] | Activity (B-cell [15]) | Activity (T-cell [16]) | Activity (B-cell [17]) | Activity (B-cell [18]) [%]
Cc1cc(OCc2cnnn2-c2cccc(I)c2)c(C)c2c1CC[C@H]1[C@H](C)C(=O)O[C@@H]21 | -15.79 | -20 | -3.15 | -20 | -15.79 | -15.79 |  |  |  |  |  |  |  |  |  |  |  | 
Cc1ccc(NC(=O)[C@H](C)[C@@H]2CCc3c(C)cc(O)c(C)c3C2)cc1O | -29.35 |  |  |  |  |  | 11.44 | Non-Toxic | 6.96 | 3.84 | Non-Toxic | Non-Toxic | 9.89 | 11.53 | Non-Toxic | Non-Toxic | Non-Toxic | 
CCOC(=O)[C@H](C)c1ccc2c(C)cc(O)c(C=O)c2c1 | -2.65 | -5.3 |  |  |  |  |  | Toxic | 14.15 | 49.48 | Toxic | Toxic | 24.74 | 34.02 | Toxic | Toxic | Toxic | 
COc1cc(C)c2ccc([C@@H](C)C(=O)O)cc2c1C |  |  |  | -25 |  |  | 13.33 | Non-Toxic | 86.66 |  | Non-Toxic | Toxic | 13.07 | 9.52 | Toxic | Toxic | Toxic | 4.76
Cc1cc(OCc2cnnn2-c2ccc(C=O)cc2)c(C)c2c1CC[C@H]1[C@H](C)C(=O)O[C@@H]21 | -35 | -22.5 | -20.83 | -6.66 | -5.83 | -24.16 |  |  |  |  |  |  |  |  |  |  |  | 
Cc1cc(O)c(C)c2c1CCC1C2OC(O)C1C (stereo unspecified) | -12.38 |  |  |  |  |  | 9.73 | Toxic | 13.27 | 16.49 | Toxic | Toxic | 16.49 | 31.95 | Toxic | Toxic | Toxic | 
Cc1cc(OCc2cnnn2/C=C/c2ccccc2)c(C)c2c1CC[C@H]1[C@H](C)C(=O)O[C@@H]21 |  | -7.69 | -95.12 | -95.12 | -95.12 |  |  |  | 36.75 |  |  |  |  |  |  |  |  | 48.71
COc1cccc(NC(=O)[C@H](C)[C@@H]2CCc3c(C)cc(O)c(C)c3C2)c1 | -13.93 |  | -31.86 | -12.63 |  | -0.99 | 3.98 | Non-Toxic |  |  | Non-Toxic | Toxic |  | 8.79 | Non-Toxic | Non-Toxic | Toxic | 
Cc1cc(O)c(C)c2c1CC[C@@H]([C@@H](C)C(=O)O)C2 |  | -1.76 |  |  |  |  |  | Toxic | 15.92 | 3.09 | Toxic | Toxic | 1.03 | 4.12 | Toxic | Toxic | Toxic | 20.35
Cc1cc(OCc2cnnn2-c2ccc3c(c2)OCO3)c(C)c2c1CC[C@H]1[C@H](C)C(=O)O[C@@H]21 | -32.63 | -50.52 | -29.47 | -45.26 | -29.47 | -14.73 |  |  |  |  |  |  |  |  |  |  |  | 
CCOC(=O)[C@H](C)c1ccc2c(C)cc(OC)c(C)c2c1 | -25.82 | -23.07 | -5.88 | -37.5 | -31.61 | -40.1 |  | Toxic |  |  | Toxic | Non-Toxic |  |  | Toxic | Toxic | Non-Toxic | 
Cc1ccc(I)cc1-n1nncc1COc1cc(C)c2c(c1C)[C@@H]1OC(=O)[C@@H](C)[C@@H]1CC2 | -16.84 | -14.73 | -23.15 | -26.31 | -13.68 | -34.73 |  |  |  |  |  |  |  |  |  |  |  | 
COc1cc(-n2nncc2COc2cc(C)c3c(c2C)[C@@H]2OC(=O)[C@@H](C)[C@@H]2CC3)cc(OC)c1OC | -14.73 | -26.31 | -16.84 | -14.73 | -20 | -16.84 |  |  |  |  |  |  |  |  |  |  |  | 
CC(=O)OCC(C)C1CCc2c(C)cc(OC(C)=O)c(C)c2C1O (stereo unspecified) |  |  |  |  |  |  | 1.76 | Non-Toxic | 2.65 | 17.52 | Non-Toxic | Toxic | 18.55 | 37.11 | Toxic | Toxic | Toxic | 5.3
CC(=O)Nc1ccc(-n2nncc2COc2cc(C)c3c(c2C)[C@@H]2OC(=O)[C@@H](C)[C@@H]2CC3)cc1 | -8.42 | -36.84 | -6.31 | -29.47 | -28.42 | -44.21 |  |  |  |  |  |  |  |  |  |  |  | 
Cc1c(N)c(O)c(C)c2c1CC[C@H]1[C@H](C)C(=O)O[C@@H]21 | -16.66 |  |  |  |  |  | 33.33 | Toxic | 17.52 | 36.02 | Toxic | Toxic | 5.91 | 13.97 | Toxic | Toxic | Toxic | 
Cc1cc(O)c(C)c2c1CC[C@@H]([C@@H](C)C(=O)Nc1nccc(C)c1[N+](=O)[O-])C2 | -2.98 |  | -26.37 |  |  |  | 64.67 | Non-Toxic | 28.35 | 42.85 | Non-Toxic | Toxic |  | 24.72 | Toxic | Toxic | Toxic | 
CCOC(=O)[C@H](C)c1ccc2c(C)cc(O)c(C)c2c1 | -6.41 |  |  |  |  | -3.84 | 23.5 | Toxic |  | 39.78 | Toxic | Toxic | 5.91 | 15.59 | Toxic | Toxic | Toxic | 
Cc1cc(O)c(C)c2c1CCC(C(C)CO)C2O (stereo unspecified) | -11.96 |  |  |  |  |  | 8.54 | Toxic | 14.52 | 26.34 | Toxic | Toxic | 6.45 | 31.18 | Toxic | Toxic | Toxic | 
Cc1cc(O)c(C)c2c1CC[C@@H]([C@@H](C)C(=O)N1CCOCC1)C2 | -2.98 |  | -21.42 |  |  | -4.97 | 14.92 | Non-Toxic |  | 12.08 | Non-Toxic | Non-Toxic |  | 8.79 | Non-Toxic | Non-Toxic | Non-Toxic | 
COc1ccc2cc(-n3nncc3COc3cc(C)c4c(c3C)[C@@H]3OC(=O)[C@@H](C)[C@@H]3CC4)ccc2c1 | -94.01 | -25.64 | -93.9 | -95.12 | -93.9 | -36.75 |  |  |  |  |  |  |  |  |  |  |  | 
CC1=C(Cl)C=C[C@]2(C)CC[C@@H]3C(=C12)OC(=O)[C@H]3C | -4.42 |  |  |  | -5.15 | -8.84 | 7.96 | Toxic |  | 16.49 | Toxic | Toxic | 9.27 |  | Toxic | Toxic | Toxic | 
